Data taken from patent US20100130444A1, “COMPLEXES OF PROSTAGLANDIN DERIVATIVES AND MONOSUBSTITUTED, CHARGED BETA-CYCLODEXTRINS” (priority 2007, published 2010).
Values after ≈ are worked out from the molar mass of the structure shown.

How the values were obtained:
Assay type in all cases: physicochemical
[1] = Solubilization of latanoprost by a library of cyclodextrin derivatives (Example 1); conditions: ultra-pure water, room temperature
Description: A library of unsubstituted and monosubstituted cyclodextrins was screened to identify those cyclodextrin derivatives that have the highest capacity for solubilization of latanoprost. Complexation was carried out in ultra-pure water at a molar ratio of cyclodextrin derivative to latanoprost of 5:1, corresponding to concentrations of 115.58 mM and 23.12 mM for cyclodextrin derivative and latanoprost, respectively. Because of the known sensitivity of latanoprost to light, high temperature and oxidation, experiments were conducted in the dark and under a nitrogen atmosphere at room temperature. […] Non-covalent complexes formed contained the cyclodextrin derivative and latanoprost at a molar ratio of 5:1.

[2] = Solubility of prostaglandin derivatives in 50 mM cyclodextrin derivative or water (Example 2)
Description: Solubility of Latanoprost, Bimatoprost And Travoprost in 50 Mm Mono-6-desoxy-6-diaminopropyl-β-cyclodextrin, Mono-6-desoxy-6-aminopropanol-β-cyclodextrin or Water

[3] = 30-day stability of latanoprost complexed with mono-6-desoxy-6-aminopropanol-β-cyclodextrin, quantitative HPLC (Example 6, Table 5); conditions: for Degradation products of latanoprost at 30 days (% of sum of drug and deg. prod.): uncomplexed aqueous solution
Description: Analogous experiments were carried out to estimate the stability of latanoprost-mono-6-desoxy-6-aminopropanol-β-cyclodextrin complex.

[4] = 30-day stability of latanoprost complexed with mono-6-desoxy-6-diaminopropyl-β-cyclodextrin, HPLC-ELSD (Example 6, Table 4); conditions: for Relative area of Latanoprost (%) after 30 days: ELSD
Description: Latanoprost-mono-6-desoxy-6-diaminopropyl-β-cyclodextrin complex was prepared essentially as described under the previous example. Complex was dissolved in water to yield solutions (pH 6.7) containing 15 mg/ml and 7.5 mg/ml of latanoprost, respectively, or in a standard, isotonic phosphate buffer (pH 6.7) at 50 μg/ml. A control solution of 50 μg/ml latanoprost in phosphate buffer was also prepared. One-milliliter amounts of these solutions were transferred to pre-scored hermetically thermo-sealed ampoules, and the sealed ampoules were incubated at room temperature, at 37° C. or at 60° C., in the presence or absence of natural light, for a total of 30 days. Aliquots were removed periodically and were analyzed by HPLC using either a UV diode array detector (at 210 nm) or an evaporative light scattering detector (ELSD). […] Such instability had been observed previously. Morgan (2001) J. Glaucoma 10, 401-405; Yusuke Sakai (2005) Int. J. Pharmaceutics 305, 176-179. International patent publication WO 2004/024164.

[5] = Time to reach maximal solubility of latanoprost in cyclodextrin solution (Example 3); conditions: 115 mM mono-6-desoxy-6-diaminopropyl-β-cyclodextrin, room temperature, dark, stirred
Description: The minimal time period required for reaching maximal solubility of the guest molecule, i.e., latanoprost, in a solution containing 115 mM mono-6-desoxy-6-diaminopropyl-β-cyclodextrin was determined. Subsequent to addition of latanoprost, the resulting suspension was ultrasonicated for 5 min and then stirred magnetically at room temperature and in the dark for a period of 48 hours. Aliquots were removed at 0, 1, 3, 6, 12, 24 and 48 hours. Each aliquot was filtered through a 0.45 um PVDF (Millipore/Whatman) membrane, and the filtrate was diluted for quantitative analysis of latanoprost by HPLC. […] Subsequent experiments were conducted after 24 hours of equilibration.

[6] = dark, nitrogen, cyclodextrin derivative 115.58 mM : latanoprost 23.12 mM (5:1), 'No addition' = latanoprost alone (Exp. S0)
[7] = 50 mM mono-6-desoxy-6-aminopropanol-β-cyclodextrin solution, aqueous with cosolvent or surfactant or cyclodextrin, read-out: Solubility In 50 mM Mono-6-desoxy-6-aminopropanol-β-cyclodextrin
[8] = 50 mM mono-6-desoxy-6-diaminopropyl-β-cyclodextrin solution, aqueous with cosolvent or surfactant or cyclodextrin, read-out: Solubility In 50 mM Mono-6-desoxy-6-diaminopropyl-β-cyclodextrin
[9] = water, read-out: Solubility In Water

Question: Which results are given for “6^1-(3-amino-propylamino)-6^1-deoxycyclomaltoheptaose”?
Answer: Mass Ratio Cyclodextrin:Latanoprost in Complex [1]: 14; Molar Ratio Cyclodextrin:Latanoprost in Complex [1]: 5; Maximal Solubility of Latanoprost [1, 6]: 9570 µg/mL

Question: With CC(C)OC(=O)CCC/C=C\C[C@@H]1[C@@H](/C=C/[C@@H](O)COc2cccc(C(F)(F)F)c2)[C@H](O)C[C@@H]1O [Travoprost, 16-(3-trifluoromethylphenoxy)-17,18,19,20-tetranor-PGF2α-isopropylester] as the compound, how does the solubility [2, 7] read?
Answer: The solubility was 4950 ± 20 µg/mL (≈ 9.89 mM).

Question: What about the solubility [2, 8] of the same compound?
Answer: Its solubility is 4940 ± 130 µg/mL (≈ 9.87 mM).

Question: What about the solubility [2, 9] of the same compound?
Answer: The solubility was 32 µg/mL (≈ 0.0639 mM).

Question: With CCNC(=O)CCC/C=C\C[C@@H]1[C@@H](/C=C/[C@@H](O)CCc2ccccc2)[C@H](O)C[C@@H]1O [Bimatoprost, 17-phenyl-18,19,20-trinor-PGF2α-ethylamide] as the compound, how does the solubility [2, 7] read?
Answer: The solubility was 10770 ± 50 µg/mL (≈ 25.9 mM).

Question: And the solubility [2, 8]?
Answer: Its solubility is 10700 ± 670 µg/mL (≈ 25.7 mM).

Question: And the solubility [2, 9]?
Answer: Its solubility is 3020 µg/mL (≈ 7.26 mM).

Question: Which “degradation at 25° C. (in words)” value ([3]; 25° C., 30 days) does the source give for CC(C)OC(=O)CCC/C=C\C[C@@H]1C(CC[C@@H](O)CCc2ccccc2)[C@H](O)C[C@@H]1O (stereo partly drawn) [Latanoprost, 13,14-dihydro-17-phenyl-18,19,20-trinor-PGF2α-isopropylester] here?
Answer: Its value is “abundant degradation”.

Question: And the “Degradation products of latanoprost at 30 days (% of sum of drug and deg. prod.)” value ([3]; 25 °C, Dark)?
Answer: Its value is 93.4%.

Question: What about the “Degradation products of latanoprost at 30 days (% of sum of drug and deg. prod.)” value ([3]; 25 °C, Light) of the same compound?
Answer: The value was 77.9%.

Question: What about the “Degradation products of latanoprost at 30 days (% of sum of drug and deg. prod.)” value ([3]; 37 °C, Dark) of the same compound?
Answer: The value was 0%.

Question: And the “Degradation products of latanoprost at 30 days (% of sum of drug and deg. prod.)” value ([3]; 37 °C, Light)?
Answer: Its value is 0%.

Question: What about the “Degradation products of latanoprost at 30 days (% of sum of drug and deg. prod.)” value ([3]; 60 °C, Dark) of the same compound?
Answer: Its value is 0%.

Question: And the “Degradation products of latanoprost at 30 days (% of sum of drug and deg. prod.)” value ([3]; 60 °C, Light)?
Answer: Its value is 0%.

Question: What about the “latanoprost in aqueous solution at 30 days” value ([3]; uncomplexed, 25 °C, Dark) of the same compound?
Answer: Its value is 0.002 +/− 0.001 g/lt.

Question: And the “latanoprost in aqueous solution at 30 days” value ([3]; uncomplexed, 25 °C, Light)?
Answer: The value was 0.006 +/− 0.004 g/lt.

Question: What about the “latanoprost in aqueous solution at 30 days” value ([3]; uncomplexed, 37 °C, Dark) of the same compound?
Answer: The value was 0.051 +/− 0.001 g/lt.

Question: And the “latanoprost in aqueous solution at 30 days” value ([3]; uncomplexed, 37 °C, Light)?
Answer: Its value is 0.061 +/− 0.003 g/lt.

Question: What about the “latanoprost in aqueous solution at 30 days” value ([3]; uncomplexed, 60 °C, Dark) of the same compound?
Answer: Its value is 0.058 +/− 0.002 g/lt.

Question: What about the “latanoprost in aqueous solution at 30 days” value ([3]; uncomplexed, 60 °C, Light) of the same compound?
Answer: The value was 0.043 +/− 0.007 g/lt.

Question: And the “latanoprost in aqueous solution at day 0” value ([3]; uncomplexed, phosphate-citrate buffer pH 5.0)?
Answer: Its value is 0.063 +/− 0.003 g/lt.

Question: What about the “Relative area of Latanoprost (%) after 30 days” value (“Relative area of Latanoprost (%)” below) ([4]; 25 °C, Dark) of the same compound?
Answer: Its value is 85.9%.

Question: And the “Relative area of Latanoprost (%)” value ([4]; 25 °C, Light, intact latanoprost as % of sum of latanoprost and degradation product)?
Answer: Its value is 76.9%.

Question: What about the “Relative area of Latanoprost (%)” value ([4]; 37 °C, Dark) of the same compound?
Answer: Its value is 100%.

Question: And the “Relative area of Latanoprost (%)” value ([4]; 37 °C, Light)?
Answer: Its value is 99.8%.

Question: And the “Relative area of Latanoprost (%)” value ([4]; 60 °C, Dark)?
Answer: Its value is 98.5%.

Question: And the “Relative area of Latanoprost (%)” value ([4]; 60 °C, Light)?
Answer: Its value is 94.7%.

Question: And the “stability over 30 days (in words)” value ([4]; room temperature, 37° C. or 60° C., light or dark, 30 days)?
Answer: Its value is “exhibited instability, in particular at 25 °C”.

Question: What about the solubility [2, 7] of the same compound?
Answer: Its solubility is 5720 ± 80 µg/mL (≈ 13.2 mM).

Question: What about the solubility [2, 8] of the same compound?
Answer: The solubility was 5900 ± 60 µg/mL (≈ 13.6 mM).

Question: And the solubility [2, 9]?
Answer: Its solubility is 89 µg/mL (≈ 0.206 mM).

Question: What about the “time at which solubility equilibrium was reached” value [5] of the same compound?
Answer: Its value is “about 24 hours”.

Question: What about the solubility ([1]; dark, nitrogen, cyclodextrin derivative 115.58 mM : latanoprost 23.12 mM (5:1), 'No addition' = latanoprost alone (Exp. S0), read-out: Maximal Solubility of Latanoprost) of the same compound?
Answer: The solubility was 45 µg/mL (≈ 0.104 mM).

Question: Which results are given for OC[C@H]1O[C@@H]2O[C@H]3[C@H](O)[C@@H](O)[C@@H](O[C@H]4[C@H](O)[C@@H](O)[C@@H](O[C@H]5[C@H](O)[C@@H](O)[C@@H](O[C@H]6[C@H](O)[C@@H](O)[C@@H](O[C@H]7[C@H](O)[C@@H](O)[C@@H](O[C@H]8[C@H](O)[C@@H](O)[C@@H](O[C@H]1[C@H](O)[C@H]2O)O[C@@H]8CO)O[C@@H]7CO)O[C@@H]6CO)O[C@@H]5CO)O[C@@H]4CO)O[C@@H]3CO [β-Cyclodextrin, β-cyclomaltoheptaose]?
Answer: Mass Ratio Cyclodextrin:Latanoprost in Complex [1]: 59; Maximal Solubility of Latanoprost [1, 6]: 255 µg/mL

Question: For “3^1,6^1-anhydrocyclomaltoheptaose [Monoanhydro-β-cyclodextrin]”, which “Mass Ratio Cyclodextrin:Latanoprost in Complex” value [1] is on record?
Answer: The value was 65.

Question: What about the “Molar Ratio Cyclodextrin:Latanoprost in Complex” value [1] of the same compound?
Answer: The value was 25.

Question: What about the “Maximal Solubility of Latanoprost” value [1, 6] of the same compound?
Answer: Its value is 2000 µg/mL.

Question: With “6^1-(methylthioureido-6^1-deoxycyclomaltoheptaose” as the compound, how does the “Mass Ratio Cyclodextrin:Latanoprost in Complex” value [1] read?
Answer: Its value is 106.

Question: What about the “Molar Ratio Cyclodextrin:Latanoprost in Complex” value [1] of the same compound?
Answer: Its value is 38.

Question: What about the “Maximal Solubility of Latanoprost” value [1, 6] of the same compound?
Answer: The value was 1300 µg/mL.

Question: Which “Mass Ratio Cyclodextrin:Latanoprost in Complex” value [1] does the source give for “6^1-(3-hydroxy-propylamino)-6^1-deoxycyclomaltoheptaose” here?
Answer: The value was 14.

Question: What about the “Molar Ratio Cyclodextrin:Latanoprost in Complex” value [1] of the same compound?
Answer: The value was 5.

Question: And the “Maximal Solubility of Latanoprost” value [1, 6]?
Answer: The value was 10200 µg/mL.
